Results taken from patent US10501440B2, “Heteroarylcarboxamide derivatives as plasma kallikrein inhibitors” (Boehringer Ingelheim International GmbH, priority 2017, dated 2019).
Read-outs that look alike come from different tables or passages of the source.

How the values were obtained:
Format in all cases: biochemical
[1] = molecular target: T1, KLKB1 (Homo sapiens (Human), UniProt P03952); test: Inhibition of KLKB1 using an endpoint assay (fluorogenic substrate H-Pro-Phe-Arg-AMC); settings: endpoint assay, 1 h at room temperature, 0.10 μM H-Pro-Phe-Arg-AMC; read-out: IC50
Procedure: (§1) The ability of compounds of formula (I) to inhibit plasma kallikrein (KLKB1), Factor XIIa (FXIIa), Factor XIa (FXIa), Factor Xa (FXa), Factor IIa (alpha-thrombin; FIIa), plasmin, trypsin, tissue kallikrein 1 (KLK1), Factor Vila (FVIIa), or FVIIa complexed with Tissue Factor, phospholipids and CaCl2 (FVIIa/TF/PL/CaCl2) was determined using the following biochemical assays in assay buffer (100 mM Tris, 150 mM NaCL, adjusted to a pH of 7.8 with HCl, and containing 0.1% (w/v) BSA and 0.05% (v/v) Tween20) in the presence of 1% (v/v) DMSO:
Evaluation of the Inhibition of KLKB1 Using an Endpoint Assay
Human KLKB1 (0.01 U/mL; Enzyme Research Laboratories) or rat KLKB1 (0.625 nM; produced in-house) was incubated for 1 h at room temperature with 0.10 μM fluorogenic substrate H-Pro-Phe-Arg-AMC (11295 from Bachem) and various concentrations of the test compound in assay buffer. Subsequently, PPACK 11 (Calbiochem) was added as a stop solution to achieve a final concentration of 1 μM and fluorescence was measured using an Envision Reader (PerkinElmer) with the wavelength excitation setting of 355 nm and the wavelength emission setting of 460 nm.
(§2) The number of the compound corresponds to the number of the Example in the experimental section.

[2] = molecular target: T1, KLKB1; test: Inhibition of KLKB1 (Ki), kinetic assay; settings: 24° C., 0.25 mM H-Pro-Phe-Arg-AMC; IC50 corrected for KM of substrate
Procedure: as §1
Evaluation of the Inhibition of KLKB1 (Ki)
Measurements were performed in a kinetic interval every 2nd minute for 16 min using a Spectramax M5 (Molecular Devices) with the following settings of the wavelength excitation of 350 nm and wavelength emission of 450 nm.
as §2
Calculation of pIC50 and Pki Values
The pIC50 values were then fitted using a four-parametric fitting procedure using GraphPad Prism (version 6; GraphPad Software, Inc.).
Where the IC50 is in molar and the KM value in mM.

[3] = molecular target: T1, KLKB1; test: Inhibition of human KLKB1 in dextran sulfate activated human PPP; settings: human platelet poor plasma (EDTA) activated with 12.5 μg/mL dextransulfate, 24° C.; read-out: IC50
Procedure: Evaluation of the Inhibition of Human KLKB1 in Dextran Sulfate Activated Human PPP
Platelet poor plasma (PPP) obtained from human wholeblood, anticoagulated with EDTA, was activated with 12.5 μg/mL dextransulfate for 7 min on ice. The activated PPP was incubated with various concentrations of the test compound in assay buffer. Afterwards the mixture was incubated at 24° C. with 0.25 mM fluorogenic substrate H-Pro-Phe-Arg-AMC (11295 from Bachem) and measurements were performed in a kinetic interval every 2nd minute for 16 min using a Spectramax M5 (Molecular Devices) with the following settings of the wavelength excitation of 350 nm and wavelength emission of 450 nm.
as §2

[4] = molecular target: T1, KLKB1; test: Inhibition of KLKB1 in kaolin activated human PPP; settings: for IC50: read-out: IC50
Procedure: Evaluation of the Inhibition of KLKB1 in Kaolin Activated Human PPP
Platelet poor plasma (PPP) obtained from human wholeblood, anticoagulated with Na-Citrat, was incubated with various concentrations of the test compound together with either 25, 75, 250, or 750 μg/mL kaolin in assay buffer for 20 min at 37° C. such that for each kaolin dose used a concentration response was obtained for the test compound.
as §2

[5] = human platelet poor plasma (Na-Citrat), 25, 75, 250 or 750 μg/mL kaolin, global fit
[6] = human platelet poor plasma (Na-Citrat), 25, 75, 250 or 750 μg/mL kaolin, global fit, read-out: IC90

T1 sequence (P03952 391-638 limits assumed): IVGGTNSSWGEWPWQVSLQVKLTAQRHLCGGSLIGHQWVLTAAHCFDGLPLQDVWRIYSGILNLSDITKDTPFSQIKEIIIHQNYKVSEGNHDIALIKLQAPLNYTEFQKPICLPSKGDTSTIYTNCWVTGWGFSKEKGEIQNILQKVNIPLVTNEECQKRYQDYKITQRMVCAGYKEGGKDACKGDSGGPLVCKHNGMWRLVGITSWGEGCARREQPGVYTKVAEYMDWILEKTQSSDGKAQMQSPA
T1 sequence (P03952 20-390 partner limits assumed): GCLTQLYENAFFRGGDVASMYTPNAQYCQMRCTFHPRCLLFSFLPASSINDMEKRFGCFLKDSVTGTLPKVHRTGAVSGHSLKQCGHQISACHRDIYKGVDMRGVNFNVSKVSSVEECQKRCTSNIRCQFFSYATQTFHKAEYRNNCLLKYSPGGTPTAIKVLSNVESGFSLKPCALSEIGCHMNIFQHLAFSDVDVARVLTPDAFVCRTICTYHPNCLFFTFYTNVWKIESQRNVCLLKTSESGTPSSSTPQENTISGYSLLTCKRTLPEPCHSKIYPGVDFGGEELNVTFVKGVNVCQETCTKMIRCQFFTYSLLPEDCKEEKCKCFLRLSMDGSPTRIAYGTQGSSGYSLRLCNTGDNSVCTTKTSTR

IC50 [1] [nM] | Ki [2] [nM] | IC50 [3] [nM] | IC50 [4, 5] [nM] | IC90 [4, 6] [nM] | Structure (SMILES) | IC90 [4] [nM]
1.4 | – | – | – | – | Cc1cc2c(c(N)n1)CC[C@H]2NC(=O)c1cn(Cc2cnc(N3CC4C(C3)C4(F)F)nc2C)nn1 (stereo partly drawn) [Example 21, N-[(5R)-1-Amino-3-methyl-5H,6H,7H-cyclopenta[c]pyridin-5-yl]-1-[(2-{6,6-difluoro-3-azabicyclo[3.1.0]hexan-3-yl}-4-methylpyrimidin-5-yl)methyl]-1H-1,2,3-triazole-4-carboxamide] | –
0.8 | 0.4 | 61.2 | – | – | Cc1nc(N2CC3CC3C2)ccc1Cn1cc(C(=O)N[C@@H]2CCc3c2ccnc3N)nn1 (stereo partly shown) [Example 5] | –
1.1 | – | – | – | – | COc1nn(Cc2ccc(N3CC4CC4C3)nc2C)cc1C(=O)N[C@@H]1CCc2c1ccnc2N (stereo partly drawn) [Example 22, N-[(5R)-1-Amino-5H,6H,7H-cyclopenta[c]pyridin-5-yl]-1-[(6-{3-azabicyclo[3.1.0]hexan-3-yl}-2-methylpyridin-3-yl)methyl]-3-methoxy-1H-pyrazole-4-carboxamide] | –
1.2 | – | – | – | – | Cc1nc(N2CC3(CC3)C2)ccc1Cn1cc(C(=O)N[C@@H]2CCc3c2ccnc3N)cn1 [Example 26, 1-[6-(5-Aza-spiro[2.3]hex-5-yl)-2-methyl-pyridin-3-ylmethyl]-1H-pyrazole-4-carboxylic acid ((R)-1-amino-6,7-dihydro-5H-[2]pyrindin-5-yl)-amide] | –
9.9 | – | – | – | – | Cc1nc(N2CC3C(C2)C3(C)C)ccc1Cn1cc(C(=O)N[C@@H]2CCc3c2ccnc3N)cn1 (stereo partly drawn) [Example 23, N-[(5R)-1-Amino-5H,6H,7H-cyclopenta[c]pyridin-5-yl]-1-[(6-{6,6-dimethyl-3-azabicyclo[3.1.0]hexan-3-yl}-2-methylpyridin-3-yl)methyl]-1H-pyrazole-4-carboxamide] | –
1.9 | 0.6 | 46.7 | – | – | Cc1nc(N2C[C@@H]3[C@H](CO)[C@@H]3C2)ccc1Cn1cc(C(=O)N[C@@H]2CCc3c2ccnc3N)cn1 [Example 12] | –
1.1 | 1.9 | – | 17.9 | 199 | Cc1nc(N2CC3C(C2)C3(F)F)ccc1Cn1cc(C(=O)N[C@@H]2CCc3c2ccnc3N)c(C(F)(F)F)n1 (stereo partly shown) [Example 7] | –
0.8 | 0.4 | – | 18 | 446 | Cc1nc(N2CC3CC3C2)ccc1Cn1cc(C(=O)N[C@@H]2CCc3c2ccnc3N)c(C(F)(F)F)n1 (stereo partly shown) [Example 4] | –
0.6 | – | – | – | – | Cc1nc(N2C[C@@H]3[C@H](C)[C@@H]3C2)ccc1Cn1cc(C(=O)N[C@@H]2CCc3c2ccnc3N)cn1 [Example 24, 1-[2-Methyl-6-((1S,5R,6R)-6-methyl-3-aza-bicyclo[3.1.0]hex-3-yl)-pyridin-3-ylmethyl]-1H-pyrazole-4-carboxylic acid ((R)-1-amino-6,7-dihydro-5H-[2]pyrindin-5-yl)-amide] | –
0.5 | 0.4 | – | – | – | Cc1cc2c(c(N)n1)CC[C@H]2NC(=O)c1cn(Cc2ccc(N3CC4CC4C3)nc2C)nc1C (stereo partly drawn) [Example 15, N-[(5R)-1-Amino-3-methyl-5H,6H,7H-cyclopenta[c]pyridin-5-yl]-1-[(6-{3-azabicyclo[3.1.0]hexan-3-yl}-2-methylpyridin-3-yl)methyl]-3-methyl-1H-pyrazole-4-carboxamide] | –
2.1 | – | – | – | – | Cc1nc(N2CC3(CCC3)C2)ccc1Cn1cc(C(=O)N[C@@H]2CCc3c2ccnc3N)cn1 [Example 25, 1-[6-(2-Aza-spiro[3.3]hept-2-yl)-2-methyl-pyridin-3-ylmethyl]-1H-pyrazole-4-carboxylic acid ((R)-1-amino-6,7-dihydro-5H-[2]pyrindin-5-yl)-amide] | –
0.3 | 0.3 | – | 16.6 | 134 | Cc1cc2c(c(N)n1)CC[C@H]2NC(=O)c1cnn(Cc2ccc(N3CC4CC4C3)nc2C)c1 (stereo partly shown) [Example 2] | –
3.9 | – | – | – | – | Cc1nc(N2CC3C(C2)C3(F)F)ncc1Cn1cc(C(=O)N[C@@H]2CCc3c2ccnc3N)nn1 (stereo partly drawn) [Example 20, N-[(5R)-1-Amino-5H,6H,7H-cyclopenta[c]pyridin-5-yl]-1-[(2-{6,6-difluoro-3-azabicyclo[3.1.0]hexan-3-yl}-4-methylpyrimidin-5-yl)methyl]-1H-1,2,3-triazole-4-carboxamide] | –
1 | – | – | – | – | Cc1nc(N2CC3CC3C2)ccc1Cn1cc(C(=O)N[C@@H]2CCc3c2ccnc3N)c(C(F)F)n1 (stereo partly drawn) [Example 19, N-[(5R)-1-Amino-5H,6H,7H-cyclopenta[c]pyridin-5-yl]-1-[(6-{3-azabicyclo[3.1.0]hexan-3-yl}-2-methylpyridin-3-yl)methyl]-3-(difluoromethyl)-1H-pyrazole-4-carboxamide] | –
1 | – | – | – | – | Cc1nc(N2CC3CC3C2)ccc1Cn1cc(C(=O)N[C@@H]2CCc3c2ccnc3N)c(C(C)C)n1 (stereo partly shown) [Example 6] | –
2 | 1.1 | 80.3 | – | – | Cc1nc(N2CCC3(CC3)C2)ccc1Cn1cc(C(=O)N[C@@H]2CCc3c2ccnc3N)cn1 [Example 14] | –
5.5 | – | – | – | – | Cc1nc(N2CC3C(C2)C3(F)F)ccc1Cn1cc(C(=O)N[C@@H]2CCc3c2ccnc3N)nn1 (stereo partly shown) [Example 8] | –
0.5 | 0.3 | 32.3 | – | – | Cc1nc(N2C[C@@H]3[C@H](C#N)[C@@H]3C2)ccc1Cn1cc(C(=O)N[C@@H]2CCc3c2ccnc3N)cn1 [Example 13, N-[(5R)-1-Amino-5H,6H,7H-cyclopenta[c]pyridin-5-yl]-1-({6-[(1R,5S,6R)-6-cyano-3-azabicyclo[3.1.0]hexan-3-yl]-2-methylpyridin-3-yl}methyl)-1H-pyrazole-4-carboxamide] | –
0.7 | 0.3 | – | 20.1 | 238 | Cc1nc(N2CC3CC3C2)ccc1Cn1cc(C(=O)N[C@@H]2CCc3c2ccnc3N)c(C)n1 (stereo partly shown) [Example 3] | –

Structure (SMILES) | IC50 [1] [nM] | Ki [2] [nM] | IC50 [3] [nM] | IC50 [4, 5] [nM] | IC90 [4, 6] [nM] | IC90 [4] [nM]
Cc1cc2c(c(N)n1)CC[C@H]2NC(=O)c1cnn(Cc2ccc(N3CC4C(C3)C4(F)F)nc2C)c1 (stereo partly drawn) [Example 10, N-[(5R)-1-Amino-3-methyl-5H,6H,7H-cyclopenta[c]pyridin-5-yl]-1-[(6-{6,6-difluoro-3-azabicyclo[3.1.0]hexan-3-yl}-2-methylpyridin-3-yl)methyl]-1H-pyrazole-4-carboxamide] | 0.4 | 0.4 | – | 16.2 | – | 96.2
Cc1cc2c(c(N)n1)CC[C@H]2NC(=O)c1cn(Cc2cnc(N3CC4CC4C3)nc2C)nn1 (stereo partly drawn) [Example 18, N-[(5R)-1-Amino-3-methyl-5H,6H,7H-cyclopenta[c]pyridin-5-yl]-1-[(2-{3-azabicyclo[3.1.0]hexan-3-yl}-4-methylpyrimidin-5-yl)methyl]-1H-1,2,3-triazole-4-carboxamide] | 1.2 | 0.5 | – | – | – | –
Cc1nc(N2CC3CC3C2)ncc1Cn1cc(C(=O)N[C@@H]2CCc3c2ccnc3N)nn1 (stereo partly drawn) [Example 16, N-[(5R)-1-Amino-5H,6H,7H-cyclopenta[c]pyridin-5-yl]-1-[(2-{3-azabicyclo[3.1.0]hexan-3-yl}-4-methylpyrimidin-5-yl)methyl]-1H-1,2,3-triazole-4-carboxamide] | 5.3 | 2.2 | – | – | – | –
Cc1cc2c(c(N)n1)CC[C@H]2NC(=O)c1cnn(Cc2cnc(N3CC4CC4C3)nc2C)c1 (stereo partly drawn) [Example 17, N-[(5R)-1-Amino-3-methyl-5H,6H,7H-cyclopenta[c]pyridin-5-yl]-1-[(2-{3-azabicyclo[3.1.0]hexan-3-yl}-4-methylpyrimidin-5-yl)methyl]-1H-pyrazole-4-carboxamide] | 1 | 0.5 | – | 52.2 | – | 511
